How the values were obtained:
HT29-MTX = test: PXR and CYP3A4 protein expression in HT29-MTX cells; format: cell-based; conditions: 24 h, 1 to 25 μM
Description: HepG2 (human hepatoma cell line; ATCC HB-8065, Manassas, VA) and HepaRG (HPRGC10, Thermo Fisher Scientific) cells were maintained in culture as previously described.[47] Experiments were performed between passages 2 and 10. Cell viability, clonogenic activity, and apoptotic cell death were assessed as previously described (see Figure S2).[58],[59] HT29 human colorectal adenocarcinoma cells (ATCC HTB-38) and its mucous-secreting HT29-MTX subclone (Sigma-Aldrich) were used as intestinal cell models. HT29 cells were cultured in RPMI (Invitrogen; Life Technologies) containing 10% FBS (v/v) and 1% (v/v) L-glutamine. HT29-MTX cells (from Sigma-Aldrich) were cultured in DMEM supplemented with 2 mM glutamine, 1% nonessential amino acids, and 10% FBS. […]
Cells were harvested and lysed in ice-cold cell lysis buffer (Cell Signaling Technology) and 20 μL/mL protease inhibitor cocktail (Roche). […] After incubation in ice for 1 h and centrifugation (12 000 rpm for 20 min at 4 °C), the supernatant was recovered, and total proteins were quantified by the BCA assay kit (Pierce, Thermo Fisher Scientific). […] The band intensity was analyzed using Gel Pro analyzer Software. […]
PXR and CYP3A4 protein was assessed by immunoblot (20 µg total protein loading) in HT29 cells (from ATCC) were cultured in RPMI (Invitrogen; Life Technologies) containing 10% FBS ( v/v) and 1% ( v/v) L-glutamine. […]

RAR = test: AlphaScreen nuclear receptor panel, RAR; format: biochemical, human
Source text: (§1) Ligand binding activity of GA (1) was explored via AlphaScreen technology over a panel of NRs that, along with hPXR (Figure 1A), included major human endocrine and metabolic receptors, such as the retinoid X receptor (RXR), constitutive androstane receptor (CAR), farnesoid X receptor (FXR), vitamin D receptor (VDR), liver X receptor (LXR) forms α and β, and the PPAR isoforms α, δ, and γ (see Figure S1). GA (1) was compared to its analogue δ-tocotrienol (5), the vitamers 3 and 4, their short-chain metabolites (SCMs) α-CEHC (10) and γ-CEHC (11), and the LCMs 2 and 8 (Chart 1). The test was performed in the presence of reference standard agonists for the different NRs.
(§2) The activity of nuclear receptors was determined using AlphaScreen technology, a recruitment coactivator assay previously described.[56]
(§3) (A) The test was carried out at 10 μM compound final concentration. Ligand binding to nuclear receptors was expressed as luminescence units. […] Vehicle was assessed to obtain a measure of background signal (basal evaluation). […] In presence of the ligand, the nuclear receptor LBD undergoes conformational changes, binds to the coactivator and the chemical energy is transferred from donor to acceptor beads in order to produce a signal, i.e. luminescence; in this case the compounds behaves as agonist, changing the conformation of the receptor to recruit the coactivator. […]

PPARs = test: AlphaScreen nuclear receptor panel, PPARs; format: biochemical, human
Source text: as §1, §2, §3

LXRβ receptor = target: T1, LXRβ receptor (Homo sapiens, UniProt P55055); test: AlphaScreen nuclear receptor panel, LXRβ; format: biochemical
T1 construct: GST-LBD
T1 sequence (P55055 222-460 limits assumed): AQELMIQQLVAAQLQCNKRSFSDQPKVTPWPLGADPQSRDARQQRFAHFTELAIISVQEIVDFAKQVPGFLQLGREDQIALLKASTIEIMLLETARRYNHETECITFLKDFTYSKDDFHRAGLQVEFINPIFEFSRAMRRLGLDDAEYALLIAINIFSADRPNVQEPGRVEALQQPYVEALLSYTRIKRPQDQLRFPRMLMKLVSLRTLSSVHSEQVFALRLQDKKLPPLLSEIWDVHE
Source text: as §1, §2, §3

HepG2 cells = test: PXR, CYP3A4 and MDR1 expression in HepG2 cells; format: cell-based
Description: HepG2 (human hepatoma cell line; ATCC HB-8065, Manassas, VA) and HepaRG (HPRGC10, Thermo Fisher Scientific) cells were maintained in culture as previously described.[47] Experiments were performed between passages 2 and 10. Cell viability, clonogenic activity, and apoptotic cell death were assessed as previously described (see Figure S2).[58],[59] HT29 human colorectal adenocarcinoma cells (ATCC HTB-38) and its mucous-secreting HT29-MTX subclone (Sigma-Aldrich) were used as intestinal cell models. HT29 cells were cultured in RPMI (Invitrogen; Life Technologies) containing 10% FBS (v/v) and 1% (v/v) L-glutamine. HT29-MTX cells (from Sigma-Aldrich) were cultured in DMEM supplemented with 2 mM glutamine, 1% nonessential amino acids, and 10% FBS. Cells were maintained at 37 C in a humidified 5% (v/v) CO2 atmosphere chamber and were used between passages 10 and 20.
Cells were harvested and lysed in ice-cold cell lysis buffer (Cell Signaling Technology) and 20 μL/mL protease inhibitor cocktail (Roche). Murine tissues (10 mg each) were weighed and resuspended in 300 μL of PBS supplemented with NP40 (1:50) and a cocktail of protease inhibitors (Pierce, Thermo Fisher Scientific). After preliminary homogenation in a 1-mL potter, sonication was performed in ice (3 cycles of 15 s each with 1 min intervals). After incubation in ice for 1 h and centrifugation (12 000 rpm for 20 min at 4 °C), the supernatant was recovered, and total proteins were quantified by the BCA assay kit (Pierce, Thermo Fisher Scientific). […] The band intensity was analyzed using Gel Pro analyzer Software. […]
RNA was extracted using the RNeasy Plus Kit (QIAGEN, Valencia, CA) and quantified with Implen NanoPhotometer (GmbH Germany), and cDNA synthesis was carried out using SuperScript IV (Thermo Fisher Scientific, MA). […]

C/C(=C\CC/C(C)=C/CC[C@]1(C)CCc2cc(O)cc(C)c2O1)CC/C=C(\C)C(=O)O [GA (1), (2E,6E,10E)-13-[(2R)-6-hydroxy-2,8-dimethyl-chroman-2-yl]-2,6,10-trimethyltrideca-2,6,10-trienoic acid]
PXR and CYP3A4 protein expression (HT29-MTX): increase | Response on RAR (RAR): No response | Response on PPARs (PPARs): No response | Agonist activity at LXRβ (LXRβ receptor): low activity | MDR1 gene expression (HepG2 cells; HepG2, 1 to 50 μM): increased in a dose–dose-dependent manner | CYP3A4 protein and mRNA expression (HepG2 cells; HepG2, 24 h, 1 and 25 μM): increased in a dose–dose-dependent manner | PXR protein expression (HepG2 cells; HepG2, 24 h, 1 and 25 μM): increased in a dose–dose-dependent manner
